Laboratory results published in patent publication EP4248959A1, “PREPARATION FOR REDUCTION OF PATHOLOGICAL IRON OVERLOAD” (Dr. Franz Köhler Chemie GmbH, priority 2022, dated 2023).
“Also recorded” adds a separate entry of the source.

Tests used:
CHO-K1 cells = assay: In vitro micronucleus assay (cytokinesis-block, OECD 487, GLP) with and without S9 metabolic activation; assay type: cell-based; conditions: for concentration-related increase in frequency of MN: Chi-square test for trend; for micronucleus frequency / MN formation compared with the concurrent negative control: with and without metabolic activation, Chi-square test with Yates' correction
Description: The in vitro Micronucleus Assay (MNA) is a mutagenic test system for the detection of chemicals that induce the formation of small membrane-bound DNA fragments (micronuclei (MN)) in the cytoplasm of interphase cells. The MNA, used for regulatory purposes measures formation of chromosomal changes following DNA damage induced by the compounds under test, and is used to predict the genotoxic potential of pharmaceuticals, industrial chemicals, food additives and cosmetic ingredients.
MN originate from chromosome fragments or whole chromosomes that are not included in the main daughter nuclei during nuclear division. They reflect chromosome damage and may thus provide a marker of genotoxicity and even early-stage carcinogenesis. The most commonly used method in mammalian cells is the cytokinesis-block micronucleus (CBMN) assay. In the CBMN assay, MN are scored after a single cell division using binucleated cultured cells (accumulated using cytochalasin B) to eliminate the confounding effect of altered cell division kinetics on the MN index.
The formation of MN is a consequence of chromosomal breakage and/or spindle-fiber dysfunction induced by clastogens and/or aneuploidogens.
DMSO controls were run concurrently for each experiment.
Micronucleus frequency was analyzed in at least 2000 binucleate cells per concentration and control.
In order to assess genotoxic potential. […] Statistical analysis of the MN frequency and binucleate cells with MN was performed using the Chi-square test with Yates' correction. To examine the dose-response relationship in frequencies of the micronuclei Chi-square test for trend was performed.

rat = assay: Acute toxicology following intravenous administration of a single dose; assay type: in vivo
Experimental: 1. Acute toxicology of 2,3-dimethoxy-N-methylbenzhydroxamic acid (XIII) following intra venous administration of a single dose.
In the preliminary phase, 1 male and 1 female rat were dosed at 200 mg/kg and observed for a period of 7 days. […] A further group of 1 male and 1 female animals was dosed at a dose level of 300 mg/kg. […] Recovery occurred approximately 4 hours after dosing.
In the main phase of the study, 1 group of 5 male and 5 female animals was dosed at 300 mg/kg and observed for a period of 14 days. […] Recovery occurred by Day 3.

[1] = both, rat, in vivo, iv, 300 mg/kg
[2] = rat, single i.v. dose of 300 mg/kg body weight

Compound | concentration-related increase in frequency of MN (CHO-K1 cells) | micronucleus frequency / MN formation compared with the concurrent negative control (CHO-K1 cells) | dose-dependent genetic toxicity (summary) (CHO-K1 cells) | genotoxicity (MNA test result) (CHO-K1 cells; +S9 short, -S9 short and -S9 extended treatment) | recovery (rat; [1]) [days] | recovery after dosing (rat; [1]) | mortality (rat; main phase, 5 male and 5 female rats, 300 mg/kg i.v. single dose, observed 14 days) | mortality (rat; preliminary phase, 1 male and 1 female rat, 200 mg/kg i.v. single dose, observed 7 days) | necropsy examination (rat; rat, in vivo) | clinical signs (rat; rat, in vivo, iv, 200 mg/kg) | tolerability of dose level (rat; [2]) | toxic effect (overall conclusion) (rat; [2])
O=P1(N(CCCl)CCCl)NCCCO1 (centres unmarked) [CP, cyclophosphamide, reference compound] | increased | significantly induced |  |  |  |  |  |  |  |  |  | 
COc1ccc(C(=O)N(C)O)cc1OC [LK 614, 3,4-dimethoxy-N-methylbenzhydroxamic acid] | not observed; also recorded: no dose-related increase | did not exhibit statistically significant increase; also recorded: None of tested concentrations of test item, LK 614, exhibits a statistically significant increase | did not produce dose-dependent genetic toxicity | no genotoxicity |  |  |  |  |  |  |  | 
COc1cccc(C(=O)N(C)O)c1OC [XIII, 2,3-dimethoxy-N-methylbenzhydroxamic acid] |  |  |  |  | ≤ 3 | approximately 4 hours | No mortality occurred | No mortality | No abnormalities | no clinical signs | reasonably tolerated | slight toxic effect
